# Data: patent US20090311198A1, “Perhydrolase for Tooth Whitening” (priority 2006, published 2009)
# Marks after values point to notes of the source that are not given here.
# What was measured:
# [1] = Intrinsic stain removal (tooth whitening) on human enamel specimens, CIELAB colour readings; conditions: for Total Change (ΔE) in Intrinsic Stain Scores: 20 ml, 30 minute intervals, mean ± SD, n = 8; for Dose-response of tooth whitening (ΔE): 0.20% to 0.01% solutions
# Source text: In the following Examples, human permanent teeth with natural intrinsic stains were obtained from oral surgeons. Selection of appropriate teeth was based on the presence of intrinsic stain after removal of exogenous stains using methods known in the art involving use of rubber cup polishing with an aqueous pumice slurry. A VITA® dental shade guide was used as a reference for tooth selection. Only specimens with a shade score of A3 or darker after drying were used in these experiments. The test specimens were comprised of cylinders of human enamel 3 mm in diameter mounted in a 10-mm-diameter black acrylic base. The circular pieces of human enamel were cut using a 3-mm diamond core drill (Continental). In order to cut the enamel, the human teeth were first mounted in 2-cm square blocks of self-curing dental acrylic with the labial surface exposed. Each block was then clamped into a small vise and immersed in a container of water to prevent the enamel from burning during the cutting process. Each immersed tooth was positioned directly under and perpendicular to the diamond core drill bit mounted on the end of an electric drill press. At high speed, the diamond core drill was lowered onto the tooth and gentle pressure was applied as the bit cut through the enamel and dentin. The 3-mm piece of cut enamel was then removed from the end of the diamond core drill and embedded with the aid of a circular mold into black, self-curing dental acrylic, providing circular blocks 10 mm in diameter. This was done in such a manner that the areas of tooth substance exposed by the drilling process were sealed by the acrylic, while the 3-mm surface enamel was left exposed. The finished tooth specimens were examined under a dissecting microscope. Specimens with imperfections were discarded. Acceptable specimens were thoroughly rinsed with distilled water, and refrigerated in a humidor until use.
# In these experiments, stain on the teeth was measured using the following method. The amount of the intrinsic stain within the teeth was measured by taking color readings with a Minolta CM-503i Spectrophotometer with diffuse illumination/8° viewing angle and 3 mm aperture. Measurements over the entire visible color spectrum were obtained using the CIELAB (Commission Internationale de L'Eclairage, Recommendations on Uniform Color Spaces. Color Difference Equations. Psychometric color Terms, Suppl. 2 to CIE publication 15 (E-13.1) 1971/(TC-1.3), 1978, Paris: Bureau Central de la CIE, 1978) color scale. This scale quantifies color according to 3 parameters, L* (lightness-darkness value), a* (red-green chroma), and b* (yellow-blue chroma). In order to obtain reproducible readings, the enamel specimens were allowed to air-dry at room temperature for 30 minutes before color measurements were taken. When the specimens were exposed to air, the teeth became whiter as they dry within the first few minutes and the color parameters change dramatically, but stabilized after 30 minutes.
# Measurements were obtained by aligning the center of the circular 3-mm segment of enamel directly over the 3-mm-diameter targeting aperture of the Minolta spectrophotometer, which enabled accurate positioning of the specimens for each test. An average of 3 color readings using the L*a*b* scale were taken for each specimen.
# In this Example, methods of treating the tooth samples are described. Before treatment, the baseline L*a*b* color scores of the tooth specimens were determined and used to stratify the teeth samples into balanced groups of 8 specimens each. For testing, each tooth specimen was immersed in 20 ml of the respective test solution for 30 minutes. The test solutions were stirred at 60 rpm with a mechanical stirrer for the duration of the exposure.
# Following each 30-minute treatment period, the specimens were rinsed and then placed back into fresh test solution. […] As a control group, 8 teeth were similarly treated in distilled water. […]
# [2] = Hydrolysis of PAA standards in buffer (ABTS assay standard curve); type: physicochemical; conditions: B(OH)3 buffer; standard concentrations in B(OH)3, pH 8.5 buffer
# Experimental: The standard curve was prepared as described below. A working stock of PAA was prepared by diluting 32% 10^4-fold to 0.4 mM in water (note: stock contained acetic acid). […] At ambient temperature, 50 to 100 uL of standard PAA dilution were added to 1 mL of the ABTS reagent. The solution was mixed well and incubated at ambient temperature for 3 minutes. The absorbance at 420 nm (or another chosen wavelength) was then measured.
# [3] = aqueous 1% (by weight) solution; ambient to oral range temperatures; cited from earlier work
# [4] = dilute 1% aqueous solution, cited from earlier work
smiles,measurement,setting,value
"OO [H2O2, hydrogen peroxide]",Total Change (ΔE) in Intrinsic Stain Scores,"[1]; 3% (positive control), Hour 1",6.21 ± 3.46^a
same,Total Change (ΔE) in Intrinsic Stain Scores,"[1]; 3% (positive control), Hour 2",7.15 ± 2.96^a
same,Total Change (ΔE) in Intrinsic Stain Scores,"[1]; 3% (positive control), Hour 4",7.28 ± 2.75^a
same,Total Change (ΔE) in Intrinsic Stain Scores,"[1]; 3% (positive control), Hour 8",7.48 ± 2.95^a
same,Total Change (ΔE) in Intrinsic Stain Scores,"[1]; 3% (positive control), Hour 10",7.77 ± 3.34^a
same,Total Change (ΔE) in Intrinsic Stain Scores,"[1]; 3% (positive control), Hour 12",9.00 ± 4.07^a
same,Total Change (ΔE) in Intrinsic Stain Scores,"[1]; 3% (positive control), Hour 14",9.68 ± 3.85^a
same,Total Change (ΔE) in Intrinsic Stain Scores,"[1]; 3% (positive control), Hour 16",10.68 ± 3.51^a
"CC(=O)OO [Peracetic Acid, peracetic acid]",half-life,[2],25 min
same,Total Change (ΔE) in Intrinsic Stain Scores,"[1]; 0.01% in 100 mmolar phosphate buffer, Hour 1","2.98 ± 2.57^b,c,d"
same,Total Change (ΔE) in Intrinsic Stain Scores,"[1]; 0.01% in 100 mmolar phosphate buffer, Hour 2",4.06 ± 2.51^b
same,Total Change (ΔE) in Intrinsic Stain Scores,"[1]; 0.01% in 100 mmolar phosphate buffer, Hour 4",4.09 ± 2.33^b
same,Total Change (ΔE) in Intrinsic Stain Scores,"[1]; 0.01% in 100 mmolar phosphate buffer, Hour 8",5.11 ± 2.71^a
same,Total Change (ΔE) in Intrinsic Stain Scores,"[1]; 0.01% in 100 mmolar phosphate buffer, Hour 10",5.88 ± 2.55^a
same,Total Change (ΔE) in Intrinsic Stain Scores,"[1]; 0.01% in 100 mmolar phosphate buffer, Hour 12",6.79 ± 3.23^a
same,Total Change (ΔE) in Intrinsic Stain Scores,"[1]; 0.01% in 100 mmolar phosphate buffer, Hour 14",7.13 ± 3.14^a
same,Total Change (ΔE) in Intrinsic Stain Scores,"[1]; 0.01% in 100 mmolar phosphate buffer, Hour 16",7.57 ± 3.05^a
same,Total Change (ΔE) in Intrinsic Stain Scores,"[1]; 0.05% in 100 mmolar phosphate buffer, Hour 1","3.41 ± 2.19^b,c,d"
same,Total Change (ΔE) in Intrinsic Stain Scores,"[1]; 0.05% in 100 mmolar phosphate buffer, Hour 2",3.83 ± 1.81^b
same,Total Change (ΔE) in Intrinsic Stain Scores,"[1]; 0.05% in 100 mmolar phosphate buffer, Hour 4",4.72 ± 1.67^b
same,Total Change (ΔE) in Intrinsic Stain Scores,"[1]; 0.05% in 100 mmolar phosphate buffer, Hour 8",5.04 ± 1.72^a
same,Total Change (ΔE) in Intrinsic Stain Scores,"[1]; 0.05% in 100 mmolar phosphate buffer, Hour 10",6.08 ± 1.25^a
same,Total Change (ΔE) in Intrinsic Stain Scores,"[1]; 0.05% in 100 mmolar phosphate buffer, Hour 12",6.55 ± 1.79^a
same,Total Change (ΔE) in Intrinsic Stain Scores,"[1]; 0.05% in 100 mmolar phosphate buffer, Hour 14",6.82 ± 1.91^a
same,Total Change (ΔE) in Intrinsic Stain Scores,"[1]; 0.05% in 100 mmolar phosphate buffer, Hour 16",7.72 ± 2.15^a
same,Total Change (ΔE) in Intrinsic Stain Scores,"[1]; 0.10% in 100 mmolar phosphate buffer, Hour 1","5.60 ± 2.69^a,b"
same,Total Change (ΔE) in Intrinsic Stain Scores,"[1]; 0.10% in 100 mmolar phosphate buffer, Hour 2","5.38 ± 1.75^a,b"
same,Total Change (ΔE) in Intrinsic Stain Scores,"[1]; 0.10% in 100 mmolar phosphate buffer, Hour 4","6.09 ± 2.52^a,b"
same,Total Change (ΔE) in Intrinsic Stain Scores,"[1]; 0.10% in 100 mmolar phosphate buffer, Hour 8",6.58 ± 2.94^a
same,Total Change (ΔE) in Intrinsic Stain Scores,"[1]; 0.10% in 100 mmolar phosphate buffer, Hour 10",7.05 ± 3.31^a
same,Total Change (ΔE) in Intrinsic Stain Scores,"[1]; 0.10% in 100 mmolar phosphate buffer, Hour 12",7.89 ± 3.47^a
same,Total Change (ΔE) in Intrinsic Stain Scores,"[1]; 0.10% in 100 mmolar phosphate buffer, Hour 14",8.71 ± 4.66^a
same,Total Change (ΔE) in Intrinsic Stain Scores,"[1]; 0.10% in 100 mmolar phosphate buffer, Hour 16",9.08 ± 4.24^a
same,Total Change (ΔE) in Intrinsic Stain Scores,"[1]; 0.20% in 100 mmolar phosphate buffer, Hour 1","5.31 ± 1.75^a,b,c"
same,Total Change (ΔE) in Intrinsic Stain Scores,"[1]; 0.20% in 100 mmolar phosphate buffer, Hour 2",6.60 ± 2.37^a
same,Total Change (ΔE) in Intrinsic Stain Scores,"[1]; 0.20% in 100 mmolar phosphate buffer, Hour 4",7.37 ± 2.85^a
same,Total Change (ΔE) in Intrinsic Stain Scores,"[1]; 0.20% in 100 mmolar phosphate buffer, Hour 8",7.54 ± 2.34^a
same,Total Change (ΔE) in Intrinsic Stain Scores,"[1]; 0.20% in 100 mmolar phosphate buffer, Hour 10",7.72 ± 3.12^a
same,Total Change (ΔE) in Intrinsic Stain Scores,"[1]; 0.20% in 100 mmolar phosphate buffer, Hour 12",8.53 ± 3.65^a
same,Total Change (ΔE) in Intrinsic Stain Scores,"[1]; 0.20% in 100 mmolar phosphate buffer, Hour 14",9.08 ± 3.81^a
same,Total Change (ΔE) in Intrinsic Stain Scores,"[1]; 0.20% in 100 mmolar phosphate buffer, Hour 16",9.34 ± 4.10^a
same,Tooth whitening (ΔE) compared with hydrogen peroxide positive control,"[1]; after 8 hours, ANOVA and SNK test, p < 0.05",statistically equivalent to the hydrogen peroxide positive control
same,Dose-response of tooth whitening (ΔE),[1]; during the first four hours of treatment,significant dose-response
same,Dose-response of tooth whitening (ΔE),[1]; up to 16 hours of treatment,numerical dose-response effect
same,Whitening effect on teeth compared with 30% (by weight) aqueous hydrogen peroxide,[3],faster and superior whitening effect
same,Time to substantial decomposition,[4]; ambient temperatures,≥ 30 days
same,Storage stability,[4]; storage at 3° C.,significantly improves stability
